Biological target: T1, hRUP25 (Homo sapiens, UniProt Q8TDS4)
T1 construct: expressed in transfected cells; host or cells: CHO cells, stably transfected
Assay: cAMP Whole Cell assay (Flash Plate Adenylyl Cyclase kit) in CHO cells stably transfected with hRUP25
Type: cell-based
Details: CHO cells stably expressing hRUP25; average of two (2) trials
Source text: A modified Flash Plate™ Adenylyl Cyclase kit (New England Nuclear, Cat. No. SMP004A) was utilized for direct identification of candidate compounds as agonists to hRUP25 (Seq. Id. Nos. 1 & 2) in accordance with the following protocol:
CHO cells stably transfected with an expression vector encoding hRUP25 and cultured under condition permissive for cell surface expression of the encoded hRUP25 receptor were harvested from flasks via non-enzymatic means. The cells were washed in PBS and resuspended in the manufacturer's Assay Buffer. Live cells were counted using a hemacytometer and Trypan blue exclusion, and the cell concentration was adjusted to 2×10^6 cells/ml. cAMP standards and Detection Buffer (comprising 2 μCi of tracer [^125I]-cAMP (100 μl) to 11 ml Detection Buffer) were prepared and maintained in accordance with the manufacturer's instructions. Candidate compounds identified as per above (if frozen, thawed at room temperature) were added to their respective wells (preferably wells of a 96-well plate) at increasing concentrations (3 μl/well; 12 μM final assay concentration). […] Plates were counted in a Wallac MicroBeta™ plate reader using “Prot. #31” (as per manufacturer instructions).
The biological in vitro activity was determined using the cAMP Whole Cell method, one representative example is shown in the table below: […]

T1 sequence (Q8TDS4 whole entry): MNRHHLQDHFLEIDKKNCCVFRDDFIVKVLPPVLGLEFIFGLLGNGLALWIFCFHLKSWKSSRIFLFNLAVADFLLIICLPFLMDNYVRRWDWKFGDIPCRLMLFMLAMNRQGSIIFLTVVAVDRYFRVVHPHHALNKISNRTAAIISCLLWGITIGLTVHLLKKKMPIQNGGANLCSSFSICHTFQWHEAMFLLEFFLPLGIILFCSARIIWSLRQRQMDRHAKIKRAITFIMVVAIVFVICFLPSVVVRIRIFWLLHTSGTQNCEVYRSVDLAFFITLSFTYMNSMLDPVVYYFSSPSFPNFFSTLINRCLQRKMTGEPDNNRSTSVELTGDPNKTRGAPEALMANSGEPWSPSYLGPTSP

- IC50: 900 nM
Structure (SMILES): CCCCc1[nH]nc(C(=O)O)c1F [Compound 8, 5-Butyl-4-fluoro-1H-pyrazole-3-carboxylic acid]
